Reference: patent US20030207813A1, “Retroviral protease inhibitor combinations” (priority 1995, published 2003)
Values after ≈ are worked out from the molar mass of the structure shown. Where two headings read alike, the source gives them in different places.

Tested on: HIV-1RF
Experiment: CEM-T4 cell infection assay, reverse transcriptase readout, isolate RF
Format: cell-based
Settings: Human immunodeficiency virus 1, CEM-T4, 168 h, 7 days, read-out: Virus Isolate (EC50 ng/mL) RF
Description: RF represents the HIV-1 strain HIV-LRF and RFR represents a mixture of resistant strains obtained by selection of RF against the compound of Example 1. RFR comprises a mixture of viral strains having protease genotypes of G48V (14/40 clones); G48V, V82A (18/40 clones); G48V, L90S (2/40 clones); G48V, 154T, V82A (1/40 clones); G48M (1/40 clones); G48V, Q61H (1/40 clones); V13I, G48V (1/40 clones); G48V, F53L, V82A (1/40 clones); and G48V, V82A, C95Y (1/40 clones). RFR2 represents a mixture of resistant strains obtained by cloning RFR by three rounds of growth at limiting dilution. RFR2 comprises a mixture of viral strains having protease genotypes of G48V, V82A (13/15 clones); G17E, G48V, V82A (1/15 clones); and G48V, V82A, N37D, N88D (1/15 clones). RFRR represents a mixture of resistant strains obtained by selection of RF against the compounds of Examples 1 and 2 and then cloning by three rounds of growth at limiting dilution. RFRR comprises a mixture of viral strains having protease genotypes of G48V, 154T, L63P, V82A (7/9 clones); G48V, 154T, L63P, V82A, N88S (1/9 clones); and G48V, 154T, L63P, G73M, V82A (1/9 clones). SF162 represents the HIV-1 strain SF-162 and SF162R represents a mixture of resistant strains obtained by selection of SF162 against the compound of Example 1. SF162R comprises a mixture of viral strains having protease genotypes of M461, F53L, L63P, A71V, N88D (2/3 clones); and M46I, F53L, L63P, A71V, N88D, Q92R (1/3 clones). 89-959 represents the HIV-1 strain 89-959 and 89-959R represents a mixture of resistant strains obtained by selection of 89-959 against the compound of Example 2. 89-959R comprises a mixture of viral strains having protease genotypes of N88S (4/5 clones); and D25N, T26A, D30N, D37N, R41K, G73D, R87K, N88S (1/4 clones). NL4 represents the HIV-1 strain HIV-1NL4-3. NL4(G48V) represents a strain having a synthetically generated site-directed mutation in the protease from glycine to valine at amino acid position number 48. NL4(I84V) represents a strain having a synthetically generated site-directed mutation in the protease from isoleucine to valine at amino acid position number 84. NL4(R8Q,M46I) represents a strain having synthetically generated site-directed mutations in the protease from arginine to glutamine at amino acid position number 8 and methionine to isoleucine at amino acid position number 46. NL4(P22-538) represents a mixture of resistant strains obtained by selection of HIV-1NL4-3 against the compound of Example 10 after 22 passages comprising protease genotypes M46I, L63P, A71V, V82F, I84V (4/10); M46I, L63P, V82F, I84V (3/10); and M46I, A71V, V82F, I84V (3/10). NL4(P37-538) represents resistant strains obtained by selection of HIV-1NL4-3 against the compound of Example 10 after 37 passages comprising protease genotype M46I, L63P, A71V, 184A. NL4(538/524) represents resistant strains obtained by selection of NL4(P22-538) against the compound of Example 5 after 24 passages comprising protease genotype M46I, L63P, A71V, 184A. NL4(538/P7-AG) represents a mixture of resistant strains obtained by selection of NL4(P22-538) against the compound of Example 12 after 7 passages comprising protease genotypes M46I, L63P, A71V, 184A; and V321, V82I. NL4(538/P24-AG) represents resistant strains obtained by selection of NL4(P22-538) against the compound of Example 12 after 24 passages comprising protease genotype M46I, L63P, A71V, 184A. NLA(P19-003) represents resistant strains obtained by selection of HIV-1^NL4-3 against the compound of Example 9 after 19 passages comprising protease genotype R8K, M46I. NL4(P34-003) represents resistant strains obtained by selection of HIV-1^NL4-3 against the compound of Example 9 after 34 passages comprising protease genotype R8K, M46I, L63P, A71V, L90M.
The viral isolate resistance results summarized in Tables 4-6 were generated according to the following assay procedure or minor modifications thereof. Assays are performed in 96-well tissue culture plates. […]

CC(C)CCN(C[C@@H](O)[C@H](Cc1ccccc1)NC(=O)[C@H](CC(N)=O)NC(=O)c1ccc2ccccc2n1)C(=O)NC(C)(C)C (relative stereo) [Example 7, [1S-[1R*(R*),2S*]]-N^1-[3-[[[(1,1-dimethylethyl)amino]carbonyl](3-methylbutyl)amino]-2-hydroxy-1-(phenylmethyl)propyl]-2-[(2-quinolinylcarbonyl)amino]-butanediamide]
EC50 (Table 5, CEM-T4 cells): 2 ng/mL (≈ 0.00323 µM)

CNCC(=O)N[C@H](C(=O)N[C@@H](Cc1ccccc1)[C@H](O)CN(CCC(C)C)C(=O)NC(C)(C)C)C(C)(C)C [Example 2, (2R,3S)-3-(N-methylaminoacetyl-L-tert-butylglycinyl)amino-1-(N-isoamyl-N-(tert-butylcarbamoyl))amino-4-phenyl-2-butanol]
EC50 (Table 4, CEM-T4 cells): 40 ng/mL (≈ 0.0749 µM) | EC50 (Table 6, CEM-T4 cells): 35 ng/mL (≈ 0.0656 µM)

CC(C)(C)NC(=O)[C@@H]1CN(Cc2cccnc2)CCN1C[C@@H](O)C[C@@H](Cc1ccccc1)C(=O)N[C@H]1c2ccccc2C[C@H]1O [Example 5, N-(2(R)-Hydroxy-1(S)-indanyl)-2(R)-phenylmethyl-4(S)-hydroxy-5-(1-(4-(3-pyridylmethyl)-2(S)-N′-(t-butylcarboxamido)-piperazinyl))-pentaneamide]
EC50 (Table 4, CEM-T4 cells): 44 ng/mL (≈ 0.0717 µM) | EC50 (Table 6, CEM-T4 cells): 6 ng/mL (≈ 0.00978 µM)

CC(C)(C)NC(=O)[C@@H]1CC2CCCC[C@@H]2CN1C[C@@H](O)[C@H](Cc1ccccc1)NC(=O)[C@H](CC(N)=O)NC(=O)c1ccc2ccccc2n1 (stereo in doubt) [Example 6, N-tert-Butyl decahydro-2-[2(R)-hydroxy-4-phenyl-3(S)-[[N-(2-quinolylcarbonyl)-L-asparaginyl]amino]butyl]-(4aR,8aS)-isoquinoline-3(S)-carboxamide]
EC50 (Table 4, CEM-T4 cells): 12 ng/mL (≈ 0.0179 µM) | EC50 (Table 6, CEM-T4 cells): 6 ng/mL (≈ 0.00894 µM)

CC(C)CN(C[C@@H](O)[C@H](Cc1ccccc1)NC(=O)[C@H](CC(N)=O)NC(=O)c1ccc2ccccc2n1)C(=O)NC(C)(C)C (relative stereo) [Example 1, [1S-[1R*(R*),2S*]]-N^1-[3-[[[(1,1-dimethylethyl)amino]carbonyl])2-methylpropyl)amino]-2-hydroxy-1-(phenylmethyl)propyl]-2-[(2-quinolinylcarbonyl)amino]-butanediamide]
EC50 (Table 4, CEM-T4 cells): 30 ng/mL (≈ 0.0496 µM) | EC50 (Table 5, CEM-T4 cells): 24 ng/mL (≈ 0.0397 µM) | EC50 (Table 6, CEM-T4 cells): 19 ng/mL (≈ 0.0314 µM)

CC(C)CN(C[C@@H](O)[C@H](Cc1ccccc1)NC(=O)[C@H](CC(N)=O)NC(=O)c1ccc2ccccc2n1)S(=O)(=O)NC(C)(C)C [Example 8, N-[3-[N^2-[N^1-(1,1-dimethylethyl)aminosulfonyl]-N^2-(2-methylpropyl)amino]-2R-hydroxy-1S-(phenylmethyl)propyl]-2S-[(2-quinolinylcarbonyl)amino]butanediamide]
EC50 (Table 5, CEM-T4 cells): 2 ng/mL (≈ 0.00312 µM)
